Reference: patent US11498896B2 (The Broad Institute, Inc., priority 2014, dated 2022)
Read-outs that look alike come from different tables or passages of the source.

Key:
human D2R/β-arrestin [1] = target: T1, human D2R/β-arrestin (Homo sapiens (Human), UniProt P14416); assay: β-arrestin agonist assay (PathHunter); assay type: cell-based; conditions: CHO-K1 cells expressing human D2R/β-arrestin; agonist mode
Description: The detection reagent (9.6 μL, Buffer:Emerald II:Galactor-Star in a 19:5:1 ratio, i.e., 14.06 mL:3.7 mL:0.74 mL=18.5 mL) was then added to the agonist plates.

human D2R/β-arrestin [2] = target: T1, human D2R/β-arrestin; assay: Gi/cAMP agonist assay (Lance Ultra cAMP, forskolin); assay type: cell-based; conditions: CHO-K1 cells expressing human D2R/β-arrestin; agonist mode, 2.5 μM forskolin
Description: Eu-cAMP tracer solution (10 μl, PerkinElmer, 360 μl of Tracer in 17.64 ml kit buffer) and ULight-anti-cAMP solution (10 μl, 120 μL antibody in 17.88 ml kit buffer) was then added to each well.

human D2R/β-arrestin [3] = target: T1, human D2R/β-arrestin; conditions: CHO-K1 cells expressing human D2R/β-arrestin, antagonist mode, quinpirole 130 nM; for IC50: read-out: β-arrestin Antagonist
Description: (§1) Cells were prepared for assays by growing cultures for up to 2 weeks (from about 6-20 passages). A vial of frozen cells was thawed in a water bath held at 37° C. The cells were then transferred into a 50 ml tube with 10 ml growth media. The vial was rinsed with growth media and the contents transferred to the 50 ml tube. The 50 ml tube was centrifuged at 1200 rpm for 5 minutes at room temperature. […] When the cells reached about 90% confluence (approximately 3 days between passages), the cells were passaged and used for either the agonist or antagonist assays as described below.
(§2) The cells were prepared for β-arrestin assays as described above. The assays were performed using a PathHunter® β-Arrestin Detecting Kit (DiscoveRX). The cells were grown on 225 mm dishes, then washed once with 1×PBS (Cellgro), followed by digestion with 2.5 ml 1× Detachment reagent (DRX 92-0009) for approximately 2 minutes.

human D2R/β-arrestin [4] = target: T1, human D2R/β-arrestin; assay: cell-based; conditions: cAMP Antagonist
D2 receptor = D2 receptor (Homo sapiens (Human), UniProt P14416); assay: D2 radioligand binding assay
human D2R/β-arrestin [5] = target: T1, human D2R/β-arrestin; conditions: read-out: cAMP Antagonist; CHO-K1 cells expressing human D2R/β-arrestin; antagonist mode, 2.5 μM forskolin and 2.7 nM quinpirole
Brain protein binding = assay type: in vitro ADME
[6] = Pharmacokinetic and brain distribution study in mice; assay type: in vivo; conditions: single intraperitoneal dose 30 mg/kg, male C57BL/6 mice; for half-life / AUC / Cmax: mouse, ip
Description: Pharmacokinetic Studies on Mice Brains
Twelve male C57BL/6 mice were weighed and administered intraperitoneally with a dose of test compound (Examples 90, 157, 125) solution formulation. The dosing volume administered for the intraperitoneal route was at 10 mL/kg. Blood samples (approximately […]) were collected from retro-orbital plexus of each mouse under light isoflurane anesthesia at 0.08, 0.5, 1, 2, 4, and 8 hr. Following the collection of blood, plasma was also harvested by centrifugation and stored at −70° C. until analysis. After collection of plasma, the animals were euthanized and brain samples were isolated at 0.08, 0.5, 1, 2, 4, and 8 hr. Tissue samples (brain) were homogenized using ice-cold phosphate buffer saline (pH 7.4) and homogenates were stored below −70° C. until analysis. Total homogenate volume was three times the tissue weight. Concentrations of test compound in mouse plasma and brain samples were determined by LC-MS/MS method.
Identical extraction procedures were used for the plasma/brain homogenate study samples and the spiked plasma calibration standards: A 25 μL sample of either study sample (plasma/brain) or spiked calibration standard was added to individual pre-labeled micro-centrifuge tubes. A volume of 100 μL of IS (antipyrine, 500 ng/mL) prepared in acetonitrile was then added to the micro-centrifuge tubes, except in a sample used as a negative control where only acetonitrile was added and vortexed for 5 minutes. Samples were centrifuged for 20 minutes at the speed of 4000 rpm at 4° C. Following centrifugation, 100 μL of the supernatant was sampled from each centrifuge tube and transferred into insert vials. These vials remained within the auto-sampler for the LC/MS/MS analysis. Standards used for calibration were prepared by spiking 10 μL of the test compound in 190 μL of control (used as a negative control) mouse plasma/brain homogenate.
The plasma and brain concentration-time data of test compounds was provided for data analysis. The plasma and brain concentration-time data was then used for the pharmacokinetic analysis. Non-Compartmental-Analysis module in Phoenix® WinNonlin® (Version 6.3) was used to assess the pharmacokinetic parameters. Peak plasma concentrations (Cmax) and time for the peak plasma concentrations (Tmax) were the observed values. The areas under the concentration time curve (AUClast and AUCinf) were calculated by linear trapezoidal rule. The terminal elimination rate constant, ke was determined by regression analysis of the linear terminal portion of the log plasma concentration-time curve.
Illustrative results are presented in FIG. 2, the pharmacokinetic parameters are as follow: […]

human D2R/β-arrestin [7] = target: T1, human D2R/β-arrestin; assay: cell-based; conditions: β-arrestin Antagonist
Description: as §1, §2

[8] = CHO-K1 cells expressing human D2R/β-arrestin, antagonist mode, 2.5 μM forskolin and 2.7 nM quinpirole
[9] = brain, read-out: Brain T1/2 (converted)
[10] = plasma, read-out: Plasma T1/2 (converted)
[11] = CHO-K1 cells expressing human D2R/β-arrestin, antagonist mode, quinpirole 130 nM

D2 receptor, sequence (P14416 whole entry): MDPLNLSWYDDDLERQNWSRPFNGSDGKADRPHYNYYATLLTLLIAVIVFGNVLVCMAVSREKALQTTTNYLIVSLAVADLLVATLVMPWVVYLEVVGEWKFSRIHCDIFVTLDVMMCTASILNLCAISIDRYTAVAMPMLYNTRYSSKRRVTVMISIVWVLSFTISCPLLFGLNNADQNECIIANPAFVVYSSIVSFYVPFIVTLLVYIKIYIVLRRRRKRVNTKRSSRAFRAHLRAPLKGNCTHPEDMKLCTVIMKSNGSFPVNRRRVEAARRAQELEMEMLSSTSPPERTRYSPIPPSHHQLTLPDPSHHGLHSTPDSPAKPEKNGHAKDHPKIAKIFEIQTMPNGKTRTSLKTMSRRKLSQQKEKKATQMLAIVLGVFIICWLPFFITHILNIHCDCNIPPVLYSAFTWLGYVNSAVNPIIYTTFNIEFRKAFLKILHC
T1 sequence (P14416 whole entry): as above

| Structure (SMILES) | EC50 (human D2R/β-arrestin [1]) | EC50 (human D2R/β-arrestin [2]) | IC50 (human D2R/β-arrestin [4]; [8]) | Ki (D2 receptor) | IC50 (human D2R/β-arrestin [7]; [11]) | further results |
| --- | --- | --- | --- | --- | --- | --- |
| CC1(C(=O)Nc2ccccc2)CCN(CC2COc3ccccc3O2)CC1 (single isomer, unassigned) [Compound 204b, 1-((2,3-dihydrobenzo[b][1,4]dioxin-2-yl)methyl)-4-methyl-N-phenylpiperidine-4-carboxamide] | > 30000 nM | < 100 nM | 100 to 1000 nM | 100 to 1000 nM | – | IC50 (human D2R/β-arrestin [3]): 1000 to 10000 nM |
| CC1(Oc2ccc(Cl)cc2)CCN(CCOc2ccc(F)cc2C(F)(F)F)CC1 [Compound 157, 4-(4-chlorophenoxy)-1-(2-(4-fluoro-2-(trifluoromethyl)phenoxy)ethyl)-4-methylpiperidine] | > 30000 nM | 100 to 1000 nM | 100 to 1000 nM | 100 to 1000 nM | 100 to 1000 nM | fraction unbound (Brain protein binding): < 0.001; Brain AUC ([6]; brain): 70.4 µM·h; Brain Cmax ([6]; brain): 7.03 µM; half-life [6, 9]: 6 h; AUC ([6]; plasma): 14 µM·h; Cmax ([6]; plasma): 2.47 µM; half-life [6, 10]: 6.2 h |
| CC(=O)NC1(C)CCN(C[C@H]2COc3ccc(Br)cc3O2)CC1 [Compound 211, (S)—N-(1-((7-bromo-2,3-dihydrobenzo[b][1,4]dioxin-2-yl)methyl)-4-methylpiperidin-4-yl)acetamide] | > 30000 nM | > 30000 nM | < 100 nM | < 100 nM | < 100 nM | – |
| CC1(Oc2ccc(C(F)(F)F)cc2)CCN(CCOc2ccccc2)C1 (stereo not shown) [Example 54, 3-methyl-1-(2-phenoxyethyl)-3-(4-(trifluoromethyl)phenoxy)pyrrolidine] | > 30000 nM | 100 to 1000 nM | 10000 to 30000 nM | 1000 to 10000 nM | 1000 to 10000 nM | – |
| CC1(Oc2ccccc2)CC2CCC(C1)N2CCOc1ccccc1C(F)(F)F (stereo not shown) [Example 78, 3-Methyl-3-phenoxy-8-(2-(2-(trifluoromethyl)phenoxy)ethyl)-8-azabicyclo[3.2.1]octane] | > 30000 nM | 10000 to 30000 nM | – | 100 to 1000 nM | – | IC50 (human D2R/β-arrestin [4]): 1000 to 10000 nM; IC50 (human D2R/β-arrestin [7]): 100 to 1000 nM |
| CC1(Oc2ccc(Cl)cc2)CCCN(CCOc2ccccc2)C1 (stereo not shown) [Example 96, 3-(4-chlorophenoxy)-3-methyl-1-(2-phenoxyethyl)piperidine] | > 30000 nM | > 30000 nM | < 100 nM | 100 to 1000 nM | 100 to 1000 nM | – |
| CC1(Oc2ccc(Cl)cc2)CCCN(CCOc2ccccc2F)C1 (stereo not shown) [Example 98a] | > 30000 nM | > 30000 nM | – | < 100 nM | – | IC50 (human D2R/β-arrestin [3]): < 100 nM; IC50 (human D2R/β-arrestin [5]): < 100 nM |
| CC1(Oc2ccc(Cl)cc2)CCCN(CCOc2ccc3scnc3c2)C1 (stereo not shown) [Example 99, 5-(2-(3-(4-chlorophenoxy)-3-methylpiperidin-1-yl)ethoxy)benzo[d]thiazole] | > 30000 nM | > 30000 nM | < 100 nM | 100 to 1000 nM | 100 to 1000 nM | – |
| CC1(C(=O)c2ccccc2)CCN(CCOc2ccccc2C(F)(F)F)CC1 [Example 106, (4-Methyl-1-(2-(2-(trifluoromethyl)phenoxy)ethyl)piperidin-4-yl) (phenyl)methanone] | > 30000 nM | > 30000 nM | < 100 nM | < 100 nM | 100 to 1000 nM | – |
| CN(c1ccccc1)C1(C)CCN(CCOc2ccccc2C(F)(F)F)CC1 [Example 112] | > 30000 nM | 100 to 1000 nM | – | 100 to 1000 nM | – | IC50 (human D2R/β-arrestin [4]): > 30000 nM; IC50 (human D2R/β-arrestin [7]): 100 to 1000 nM |
| O=C1CCc2ccc(OCCCCN3CCCN(c4cccc(Cl)c4Cl)CC3)nc2N1 [UNC9975, reference compound] | – | – | – | – | – | cAMP Agonist (human D2R/β-arrestin [2]): B or A; β-arrestin Antagonist (human D2R/β-arrestin [3]): B or A |
| Clc1cccc(C2CCN(CCCOc3ccc4scnc4c3)CC2)c1Cl [UNC9994, reference compound] | – | – | – | – | – | β-arrestin Agonist (human D2R/β-arrestin [1]): B or C; β-arrestin Antagonist (human D2R/β-arrestin [3]): B or C |

Second part, led by results:

| EC50 (human D2R/β-arrestin [1]) | EC50 (human D2R/β-arrestin [2]) | IC50 (human D2R/β-arrestin [4]; [8]) | Ki (D2 receptor) | IC50 (human D2R/β-arrestin [7]; [11]) | Structure (SMILES) | further results |
| --- | --- | --- | --- | --- | --- | --- |
| > 30000 nM | 100 to 1000 nM | – | 1000 to 10000 nM | – | CC1(Oc2ccc(Cl)cc2)CCN(CCOc2ccc3ncsc3c2)C1 (stereo not shown) [Compound 18b] | IC50 (human D2R/β-arrestin [3]): 1000 to 10000 nM; IC50 (human D2R/β-arrestin [5]): > 30000 nM |
| 10000 to 30000 nM | 100 to 1000 nM | > 30000 nM | 1000 to 10000 nM | > 30000 nM | CC1(Oc2ccc(Cl)cc2)CCN(CCOc2ccc(C(F)(F)F)cc2)CC1 [Compound 125, 4-(4-Chlorophenoxy)-4-methyl-1-(2-(4-(trifluoromethyl)phenoxy)ethyl) piperidine] | fraction unbound (Brain protein binding): 0.002; Brain AUC ([6]; brain): 222.3 µM·h; Brain Cmax ([6]; brain): 37.9 µM; half-life [6, 9]: 7 h; AUC ([6]; plasma): 69.6 µM·h; Cmax ([6]; plasma): 19.8 µM; half-life [6, 10]: 13.4 h |
| > 30000 nM | < 100 nM | > 30000 nM | 1000 to 10000 nM | 1000 to 10000 nM | CC1(Oc2cccc(C(F)(F)F)c2)CCN(CCOc2ccccc2)C1 (stereo not shown) [Example 55, 3-methyl-1-(2-phenoxyethyl)-3-(3-(trifluoromethyl)phenoxy)pyrrolidine] | – |
| 10000 to 30000 nM | < 100 nM | > 30000 nM | 1000 to 10000 nM | > 30000 nM | CC1(Oc2ccncc2)CCN(CCOc2ccccc2)C1 (stereo not shown) [Example 59, 4-((3-methyl-1-(2-phenoxyethyl)pyrrolidin-3-yl)oxy)pyridine] | – |
| 1000 to 10000 nM | < 100 nM | – | 10000 to 30000 nM | – | CC1(Oc2ccncc2)CCN(CCOc2ccccc2)C1 (stereo not shown) [Example 59b] | IC50 (human D2R/β-arrestin [3]): > 30000 nM; IC50 (human D2R/β-arrestin [5]): > 30000 nM |
| > 30000 nM | < 100 nM | > 30000 nM | 100 to 1000 nM | > 30000 nM | CC1(Oc2ccccc2)CCN(CCOc2ccc(C(F)(F)F)cc2)CC1 [Example 68] | – |
| < 100 nM | < 100 nM | > 30000 nM | < 100 nM | > 30000 nM | CC1(Oc2ccc(Cl)cc2)CCN(CCOc2ccccc2F)CC1 [Example 86, 4-(4-chlorophenoxy)-1-(2-(2-fluorophenoxy)ethyl)-4-methylpiperidine] | – |
| > 30000 nM | < 100 nM | > 30000 nM | 100 to 1000 nM | < 100 nM | CC1(Oc2ccccc2)CCN(CCOc2ccccc2C(F)(F)F)CC1 [Example 91, 4-methyl-4-phenoxy-1-(2-(2-(trifluoromethyl)phenoxy)ethyl)piperidine] | – |
| > 30000 nM | < 100 nM | – | 100 to 1000 nM | – | FC(F)(F)c1ccccc1OCCN1CCC2(CC1)CC2c1ccccc1 (stereo not shown) [Example 102a] | IC50 (human D2R/β-arrestin [3]): 100 to 1000 nM; IC50 (human D2R/β-arrestin [5]): > 30000 nM |
| > 30000 nM | < 100 nM | > 30000 nM | < 100 nM | 100 to 1000 nM | CC1(Oc2ccccc2)CCN(CCOc2ccccc2OC(F)(F)F)CC1 [Example 110, 4-methyl-4-phenoxy-1-(2-(2-(trifluoromethoxy)phenoxy)ethyl) piperidine] | – |
